In ChEMBL document CHEMBL1255533, “PKI-179: an orally efficacious dual phosphatidylinositol-3-kinase (PI3K)/mammalian target of rapamycin (mTOR) inhibitor” (Bioorg Med Chem Lett, 2010) one finds IC50, inhibition and Activity data, which are given here for 1 molecule.

Structures are written as SMILES. Active and inactive are the calls of the source. The calls are words filed in the database; no cut-off is given here.

One series has as its target Cytochrome P450 2C19 (Homo sapiens, UniProt P33261). Kind of series: Inhibition of CYP2C19. In kind it is ADME.
Series [1] deals with Mus musculus. Description: In vivo inhibition of mTORC1 in mouse bearing human MDA-MB-361 cells assessed as inhibition of S6 phosphorylation at 50 mg/kg, po. Details: dose 50 mg/kg. In kind it is functional, organism-based.
Series [2] concerns the target Serine/threonine-protein kinase mTOR (Homo sapiens, UniProt P42345). Description: Inhibition of mTOR.
The next series deals with T1, Cytochrome P450 1A2 (Homo sapiens, UniProt P05177).
T1 sequence (P05177 whole entry): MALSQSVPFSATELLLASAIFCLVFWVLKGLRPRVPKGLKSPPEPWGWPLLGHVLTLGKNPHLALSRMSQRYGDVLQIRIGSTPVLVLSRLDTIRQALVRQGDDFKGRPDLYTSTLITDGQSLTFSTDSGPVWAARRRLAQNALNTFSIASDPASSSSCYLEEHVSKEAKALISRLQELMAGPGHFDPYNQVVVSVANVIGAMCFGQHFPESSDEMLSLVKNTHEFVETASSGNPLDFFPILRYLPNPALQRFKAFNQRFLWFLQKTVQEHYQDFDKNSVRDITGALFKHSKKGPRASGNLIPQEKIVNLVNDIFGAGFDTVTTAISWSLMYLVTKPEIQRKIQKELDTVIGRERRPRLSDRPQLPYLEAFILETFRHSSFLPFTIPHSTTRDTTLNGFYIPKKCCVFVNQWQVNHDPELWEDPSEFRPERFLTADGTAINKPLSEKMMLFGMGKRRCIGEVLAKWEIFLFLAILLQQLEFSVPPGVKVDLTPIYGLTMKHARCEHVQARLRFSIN
Kind of series: Inhibition of CYP1A2. In kind it is ADME.

The test system of a further series is PC-3. Kind of series: Antiproliferative activity against human PC3 cells. It counts as functional, cell-based.
In another series the target is T2, Cytochrome P450 2B6 (Homo sapiens, UniProt P20813).
T2 sequence (P20813 whole entry): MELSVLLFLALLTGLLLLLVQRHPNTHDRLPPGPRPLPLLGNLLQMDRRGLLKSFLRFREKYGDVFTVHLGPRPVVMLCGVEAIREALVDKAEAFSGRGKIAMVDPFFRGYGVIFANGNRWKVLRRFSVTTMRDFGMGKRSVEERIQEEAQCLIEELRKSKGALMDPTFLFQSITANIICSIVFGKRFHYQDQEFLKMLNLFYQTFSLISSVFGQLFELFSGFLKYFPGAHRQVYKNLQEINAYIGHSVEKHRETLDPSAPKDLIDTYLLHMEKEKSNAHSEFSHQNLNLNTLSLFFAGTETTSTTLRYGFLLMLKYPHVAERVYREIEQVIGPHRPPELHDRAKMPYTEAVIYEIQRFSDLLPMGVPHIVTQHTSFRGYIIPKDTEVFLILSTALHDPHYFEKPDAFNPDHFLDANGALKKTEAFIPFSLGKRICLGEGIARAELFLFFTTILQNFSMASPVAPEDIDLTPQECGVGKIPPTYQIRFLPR
Kind of series: Inhibition of CYP2B6. In kind it is ADME.

Series [3] concerns Mus musculus. Kind of series: In vivo inhibition of PI3K in mouse bearing human MDA-MB-361 cells assessed as inhibition of AKT phosphorylation at 50 mg/kg, po. Details: dose 50 mg/kg. It counts as functional, organism-based.
Series [4] relates to Mus musculus. Kind of series: In vivo inhibition of mTORC1 in mouse bearing human MDA-MB-361 cells assessed as inhibition of S6K phosphorylation at 50 mg/kg, po. It counts as functional, organism-based. Details: dose 50 mg/kg.
In series [5] the test system is MDA-MB-361. Description: Antiproliferative activity against human MDA-MB-361 cells. It counts as functional, cell-based.
A short description of series [6]: Inhibition of PI3K-alpha […] mutant.
For another series, the target named is T3, Cytochrome P450 2A6 (Homo sapiens, UniProt P11509).
T3 sequence (P11509 whole entry): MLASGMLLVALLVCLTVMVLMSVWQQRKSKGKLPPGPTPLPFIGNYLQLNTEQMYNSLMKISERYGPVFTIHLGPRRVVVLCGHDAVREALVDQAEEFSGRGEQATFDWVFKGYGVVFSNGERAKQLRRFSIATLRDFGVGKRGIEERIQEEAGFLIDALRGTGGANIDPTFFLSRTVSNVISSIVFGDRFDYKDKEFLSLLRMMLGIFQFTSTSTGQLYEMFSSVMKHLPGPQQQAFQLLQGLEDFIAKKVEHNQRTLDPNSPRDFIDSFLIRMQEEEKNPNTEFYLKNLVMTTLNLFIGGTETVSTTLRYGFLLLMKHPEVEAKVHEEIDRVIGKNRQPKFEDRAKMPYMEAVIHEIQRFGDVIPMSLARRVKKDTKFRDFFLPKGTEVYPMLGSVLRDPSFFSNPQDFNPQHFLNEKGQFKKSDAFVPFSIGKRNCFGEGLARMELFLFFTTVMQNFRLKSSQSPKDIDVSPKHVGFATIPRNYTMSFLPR
Description: Inhibition of CYP2A6. In kind it is ADME.

Another series deals with T4, Cytochrome P450 2C8 (Homo sapiens, UniProt P10632).
T4 sequence (P10632 whole entry): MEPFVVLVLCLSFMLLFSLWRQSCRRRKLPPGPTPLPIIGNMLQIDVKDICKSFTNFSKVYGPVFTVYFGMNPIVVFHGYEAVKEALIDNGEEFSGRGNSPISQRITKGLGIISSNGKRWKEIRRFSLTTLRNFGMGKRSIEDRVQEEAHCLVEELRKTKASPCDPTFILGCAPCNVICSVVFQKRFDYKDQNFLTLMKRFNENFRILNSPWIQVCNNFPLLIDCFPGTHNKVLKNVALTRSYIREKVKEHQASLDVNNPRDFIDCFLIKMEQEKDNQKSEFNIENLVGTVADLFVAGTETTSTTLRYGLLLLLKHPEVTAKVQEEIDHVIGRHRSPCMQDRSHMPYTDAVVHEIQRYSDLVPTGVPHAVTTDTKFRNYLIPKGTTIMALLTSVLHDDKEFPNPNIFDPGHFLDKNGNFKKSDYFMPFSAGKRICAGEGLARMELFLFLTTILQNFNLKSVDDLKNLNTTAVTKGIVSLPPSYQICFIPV
Kind of series: Inhibition of CYP2C8. It counts as ADME.

Series [7] has as its system MDA-MB-361. Kind of series: Antitumor activity against human MDA-MB-361 cells xenografted in mouse assessed as inhibition tumor growth at 10 mg/kg, po qd. In kind it is functional, organism-based. Details: dose 10 mg/kg. In general terms: Xenograft models place foreign cells or tissue in a host animal.
In series [8] the test system is Mus musculus. Description: Toxicity in mouse assessed as weight loss at 10 mg/kg, po qd. In kind it is organism-based. Details: dose 10 mg/kg, route oral. The conditions noted are these: in vivo.
Series [9] has as its target Phosphatidylinositol 4,5-bisphosphate 3-kinase catalytic subunit alpha isoform (Homo sapiens, UniProt P42336, E545K). Kind of series: Inhibition of PI3K-alpha E545K mutant.
Series [10] concerns the target Phosphatidylinositol 4,5-bisphosphate 3-kinase catalytic subunit gamma isoform (Homo sapiens, UniProt P48736). Kind of series: Inhibition of PI3K-gamma.
For series [11], the target named is Phosphatidylinositol 4,5-bisphosphate 3-kinase catalytic subunit beta isoform (Homo sapiens, UniProt P42338). Kind of series: Inhibition of PI3K-beta.
Sequence of Phosphatidylinositol 4,5-bisphosphate 3-kinase catalytic subunit beta isoform (P42338 whole entry, canonical isoform): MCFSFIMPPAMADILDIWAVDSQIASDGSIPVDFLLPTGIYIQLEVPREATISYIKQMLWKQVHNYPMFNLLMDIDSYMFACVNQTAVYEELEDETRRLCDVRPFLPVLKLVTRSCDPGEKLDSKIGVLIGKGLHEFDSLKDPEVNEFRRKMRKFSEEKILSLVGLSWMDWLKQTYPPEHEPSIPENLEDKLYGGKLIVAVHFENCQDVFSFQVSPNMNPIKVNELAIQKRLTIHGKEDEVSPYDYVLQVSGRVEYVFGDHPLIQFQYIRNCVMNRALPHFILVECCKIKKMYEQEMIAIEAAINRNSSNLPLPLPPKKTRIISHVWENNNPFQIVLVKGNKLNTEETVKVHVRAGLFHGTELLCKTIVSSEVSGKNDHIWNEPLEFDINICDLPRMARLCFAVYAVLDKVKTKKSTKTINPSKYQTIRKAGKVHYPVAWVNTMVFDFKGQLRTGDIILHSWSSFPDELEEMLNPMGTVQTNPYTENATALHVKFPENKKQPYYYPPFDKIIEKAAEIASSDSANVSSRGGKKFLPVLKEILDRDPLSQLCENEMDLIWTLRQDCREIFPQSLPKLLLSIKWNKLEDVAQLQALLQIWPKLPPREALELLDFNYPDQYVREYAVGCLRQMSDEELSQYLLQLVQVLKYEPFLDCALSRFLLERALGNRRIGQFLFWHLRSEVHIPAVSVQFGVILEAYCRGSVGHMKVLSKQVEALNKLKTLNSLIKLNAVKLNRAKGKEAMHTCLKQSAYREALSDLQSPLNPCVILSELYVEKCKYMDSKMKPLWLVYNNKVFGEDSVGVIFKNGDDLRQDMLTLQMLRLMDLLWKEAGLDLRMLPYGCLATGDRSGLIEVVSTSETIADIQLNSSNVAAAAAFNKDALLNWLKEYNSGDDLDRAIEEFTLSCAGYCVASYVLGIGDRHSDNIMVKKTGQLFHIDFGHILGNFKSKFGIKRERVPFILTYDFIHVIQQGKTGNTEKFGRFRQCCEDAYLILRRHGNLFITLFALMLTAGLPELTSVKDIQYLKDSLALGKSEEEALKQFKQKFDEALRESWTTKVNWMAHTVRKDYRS
The target of a further series is Cytochrome P450 2D6 (Homo sapiens, UniProt P10635). Description: Inhibition of CYP2D6. In kind it is ADME.
Sequence of Cytochrome P450 2D6 (P10635 whole entry): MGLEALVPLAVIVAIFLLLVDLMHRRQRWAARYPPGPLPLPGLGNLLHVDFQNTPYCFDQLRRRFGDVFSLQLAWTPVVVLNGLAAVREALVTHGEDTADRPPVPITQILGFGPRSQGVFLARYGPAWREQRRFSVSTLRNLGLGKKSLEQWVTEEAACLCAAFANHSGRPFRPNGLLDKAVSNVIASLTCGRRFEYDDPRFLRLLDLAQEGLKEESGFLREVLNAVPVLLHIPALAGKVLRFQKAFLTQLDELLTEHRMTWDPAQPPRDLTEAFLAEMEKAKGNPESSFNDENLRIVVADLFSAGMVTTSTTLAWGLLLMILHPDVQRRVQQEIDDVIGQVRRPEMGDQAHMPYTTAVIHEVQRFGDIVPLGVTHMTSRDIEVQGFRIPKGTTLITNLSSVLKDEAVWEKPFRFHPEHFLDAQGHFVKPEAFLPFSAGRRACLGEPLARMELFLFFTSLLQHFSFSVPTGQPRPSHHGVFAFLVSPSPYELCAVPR

Sequence of Phosphatidylinositol 4,5-bisphosphate 3-kinase catalytic subunit alpha isoform (P42336 whole entry E545K, canonical isoform): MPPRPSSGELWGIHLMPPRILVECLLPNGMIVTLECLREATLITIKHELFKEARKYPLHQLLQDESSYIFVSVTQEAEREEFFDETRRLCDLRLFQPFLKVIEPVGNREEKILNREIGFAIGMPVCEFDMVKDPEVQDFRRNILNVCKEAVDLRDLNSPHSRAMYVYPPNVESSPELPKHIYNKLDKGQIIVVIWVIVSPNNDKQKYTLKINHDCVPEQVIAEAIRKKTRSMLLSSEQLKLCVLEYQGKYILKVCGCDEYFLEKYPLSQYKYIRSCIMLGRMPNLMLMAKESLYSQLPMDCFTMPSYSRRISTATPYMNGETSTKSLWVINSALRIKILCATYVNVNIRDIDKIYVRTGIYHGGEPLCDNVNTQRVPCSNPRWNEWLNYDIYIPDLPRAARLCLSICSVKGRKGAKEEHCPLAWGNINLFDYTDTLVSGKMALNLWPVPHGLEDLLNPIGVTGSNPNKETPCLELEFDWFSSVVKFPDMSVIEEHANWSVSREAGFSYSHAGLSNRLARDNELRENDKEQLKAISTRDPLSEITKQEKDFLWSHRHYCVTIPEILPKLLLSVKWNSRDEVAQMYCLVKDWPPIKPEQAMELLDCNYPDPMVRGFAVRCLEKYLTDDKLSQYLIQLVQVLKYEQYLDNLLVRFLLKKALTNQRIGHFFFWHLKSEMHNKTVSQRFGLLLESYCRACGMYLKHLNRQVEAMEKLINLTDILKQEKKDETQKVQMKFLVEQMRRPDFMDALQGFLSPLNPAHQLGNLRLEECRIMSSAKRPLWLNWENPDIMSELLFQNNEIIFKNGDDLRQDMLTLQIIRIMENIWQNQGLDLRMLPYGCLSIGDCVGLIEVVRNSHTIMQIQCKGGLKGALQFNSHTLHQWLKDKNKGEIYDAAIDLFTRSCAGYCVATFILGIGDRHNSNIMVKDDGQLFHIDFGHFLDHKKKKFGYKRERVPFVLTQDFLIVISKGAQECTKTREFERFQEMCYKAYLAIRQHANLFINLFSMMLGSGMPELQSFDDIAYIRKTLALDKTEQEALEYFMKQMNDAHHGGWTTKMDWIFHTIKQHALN
Sequence of Phosphatidylinositol 4,5-bisphosphate 3-kinase catalytic subunit gamma isoform (P48736 whole entry, canonical isoform): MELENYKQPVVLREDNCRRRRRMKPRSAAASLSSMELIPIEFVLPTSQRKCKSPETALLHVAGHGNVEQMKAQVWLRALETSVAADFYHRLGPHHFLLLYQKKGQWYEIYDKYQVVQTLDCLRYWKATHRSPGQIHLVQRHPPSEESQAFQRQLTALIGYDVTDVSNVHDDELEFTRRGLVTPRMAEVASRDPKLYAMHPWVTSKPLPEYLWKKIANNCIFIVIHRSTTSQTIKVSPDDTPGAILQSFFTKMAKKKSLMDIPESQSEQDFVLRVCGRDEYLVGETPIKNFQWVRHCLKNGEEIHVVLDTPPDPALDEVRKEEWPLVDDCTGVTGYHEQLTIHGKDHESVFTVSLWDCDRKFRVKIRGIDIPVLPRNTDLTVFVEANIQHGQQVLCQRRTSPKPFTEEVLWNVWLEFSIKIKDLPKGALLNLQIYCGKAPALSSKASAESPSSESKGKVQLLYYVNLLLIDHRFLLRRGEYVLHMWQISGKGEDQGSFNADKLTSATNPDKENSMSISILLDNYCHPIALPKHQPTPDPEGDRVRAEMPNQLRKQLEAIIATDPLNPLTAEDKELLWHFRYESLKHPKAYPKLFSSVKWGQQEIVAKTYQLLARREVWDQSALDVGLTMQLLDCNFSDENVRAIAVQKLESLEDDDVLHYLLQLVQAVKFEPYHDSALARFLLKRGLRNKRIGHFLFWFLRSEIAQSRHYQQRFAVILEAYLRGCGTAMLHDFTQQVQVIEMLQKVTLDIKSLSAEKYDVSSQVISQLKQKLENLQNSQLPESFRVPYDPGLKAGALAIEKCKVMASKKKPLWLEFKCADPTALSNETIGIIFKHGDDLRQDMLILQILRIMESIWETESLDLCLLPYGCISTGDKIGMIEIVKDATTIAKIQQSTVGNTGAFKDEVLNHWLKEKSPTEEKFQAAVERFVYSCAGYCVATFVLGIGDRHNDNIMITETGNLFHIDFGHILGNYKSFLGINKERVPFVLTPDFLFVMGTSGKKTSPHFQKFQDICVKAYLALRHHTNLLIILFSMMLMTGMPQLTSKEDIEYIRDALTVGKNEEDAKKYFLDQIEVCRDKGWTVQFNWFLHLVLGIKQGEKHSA
Sequence of Cytochrome P450 2C19 (P33261 whole entry): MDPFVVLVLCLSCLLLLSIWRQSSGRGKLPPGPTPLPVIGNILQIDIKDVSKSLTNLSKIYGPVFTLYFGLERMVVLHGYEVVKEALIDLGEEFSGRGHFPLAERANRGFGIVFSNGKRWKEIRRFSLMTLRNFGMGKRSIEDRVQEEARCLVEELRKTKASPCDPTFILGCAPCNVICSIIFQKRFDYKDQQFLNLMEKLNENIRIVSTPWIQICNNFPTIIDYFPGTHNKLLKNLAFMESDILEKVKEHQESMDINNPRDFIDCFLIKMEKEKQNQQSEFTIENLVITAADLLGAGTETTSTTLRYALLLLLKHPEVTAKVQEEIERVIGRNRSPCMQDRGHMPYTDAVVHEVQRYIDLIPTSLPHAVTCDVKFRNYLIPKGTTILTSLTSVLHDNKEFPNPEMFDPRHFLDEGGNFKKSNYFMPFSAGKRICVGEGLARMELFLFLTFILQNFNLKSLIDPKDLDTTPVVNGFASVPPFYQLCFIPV

As usually defined, the IC50 is the concentration at which inhibition is half-maximal. A lower IC50 goes with higher potency. As for `O=C(Nc1ccncc1)Nc1ccc(-c2nc(N3CCOCC3)nc(N3C4CCC3COC4)n2)cc1` [PKI-179], the IC50 was above 30 µM against Cytochrome P450 2C19; 0.00042 µM in [2]; above 30 µM against Cytochrome P450 1A2; 0.029 µM in the series on PC-3; above 30 µM at Cytochrome P450 2B6; 0.022 µM in the series on MDA-MB-361 [5]. Further, the IC50 in series [6] is 0.011 µM; at Cytochrome P450 2A6, above 30 µM; on Cytochrome P450 2C8, 3 µM; in [9], 0.014 µM; in series [10], 0.074 µM; in series [11] it was 0.024 µM. The molecule also gave an IC50 at Cytochrome P450 2D6 above 30 µM. Also, the inhibition result with Mus musculus [1], with Mus musculus [3], in the series on Mus musculus [4] and with MDA-MB-361 [7] was “Active” in each case. For the same molecule, in the series on Mus musculus [8], the Activity entry is “Non-toxic”.
